Test results from patent US20240327364A1, “THERAPEUTIC TARGETING OF GPR68 TO INDUCE FERROPTOSIS” (University Of Maryland, Baltimore, priority 2023, published 2024).

Columns and labels:
REC-1 = assay: Cell Titer-Glo viability, B-cell lymphoma; type: cell-based; conditions: 72 hours
Description: (§1) OGM2 kills wide variety of cancer cell types. Cell sensitivity can be classified in to Very Sensitive (LC50<2 μM), Sensitive (LC50=2 to 10 μM), Mildly Sensitive (LC50>10 μM), and Refractory (no killing at 10 μM). The listed established cell were incubated with OGM2 at 2 μM or 10 μM for 72 hours under standard cell culture conditions, and relative cell number was assessed using Cell Titer-Glo Luminescent Cell Viability Assay (Promega™) following the manufacturer's instructions. Luminescence was determined using a Cytation 5 reader and Gen5 software package (BioTek™).
(§2) Cancer cells, which are very sensitive to killing by OGM2 (LCs <2 μM), with reported mRNA expression of GPR68 and the related proton sensing receptor GPR4. LC50's (concentrations causing 50% lethality) were determined using CellTiter-Glo (Promega™, G7570). Cells were plated in 12-well plates (CELLTREAT Scientific Products, 229112) in 1 ml of DMEM with high glucose, GlutaMAX, HEPES, or RPMI 1640 with Penicillin-Streptomycin (ThermoFisher™, 10564029, 11875119 and 15140122) and 10% FBS. Cells were incubated overnight at 37° C. in 5% CO2. Then 1 mL of fresh media was added with DMSO, OGM, or positive control (Erastin; APExBIO Technology, LLC, B1524) and cells incubated for 3 days. On the third day, all media was removed, cells were rinsed with 1×PBS, PBS was removed, and 200 μL of 1× Passive Lysis Buffer (Promega™, E1941) was added to each well. […]. […] Plates were briefly spun down and read on a GloMax-Multi Detection System (Promega™).
(§3) The cells listed in the tables above were incubated with OGM2 at 2 μM or 10 μM for 72 hours under standard cell culture conditions, and relative cell number was assessed using Cell Titer-Glo Luminescent Cell Viability Assay (Promega™) following the manufacturer's instructions. Luminescence was determined using a Cytation 5 reader and Gen5 software package (BioTek™). […] The consensus normalized expression value (“nTPM”=normalize transcript per million) was calculated as the maximum nTPM value for each gene in the two data sources.

SW480 = assay: Cell Titer-Glo viability, Colon adenocarcinoma; type: cell-based; conditions: 72 hours
Description: as §1, §2, §3

K-562 = assay: Cell Titer-Glo viability, Chronic myelogenous leukemia; type: cell-based
Description: as §1
Cancer cells, which are very sensitive to killing by OGM2 (LCs <2 μM), with reported mRNA expression of GPR68 and the related proton sensing receptor GPR4. LC50's (concentrations causing 50% lethality) were determined using CellTiter-Glo (Promega™, G7570). Cells were plated in 12-well plates (CELLTREAT Scientific Products, 229112) in 1 ml of DMEM with high glucose, GlutaMAX, HEPES, or RPMI 1640 with Penicillin-Streptomycin (ThermoFisher™, 10564029, 11875119 and 15140122) and 10% FBS. Cells were incubated overnight at 37° C. in 5% CO2. Then 1 mL of fresh media was added with DMSO, OGM, or positive control (Erastin; APExBIO Technology, LLC, B1524) and cells incubated for 3 days. On the third day, all media was removed, cells were rinsed with 1×PBS, PBS was removed, and 200 μL of 1× Passive Lysis Buffer (Promega™, E1941) was added to each well. […]. Subsequently, 20 μL of lysate was added to 100 μL CellTiter-Glo™ reagent on a LUMITRAC 200 plate (Greiner™ bio-one, 82050-726). Plates were briefly spun down and read on a GloMax-Multi Detection System (Promega™).
The cells listed in the tables above were incubated with OGM2 at 2 μM or 10 μM for 72 hours under standard cell culture conditions, and relative cell number was assessed using Cell Titer-Glo Luminescent Cell Viability Assay (Promega™) following the manufacturer's instructions. Luminescence was determined using a Cytation 5 reader and Gen5 software package (BioTek™). RNA expression of GPR68 and GPR4 in the corresponding cancer cell lines are listed, according to the publicly available The Human Protein Atlas version 22.0 and Ensembl version 103.38 (see proteinatlas.org). The consensus normalized expression value (“nTPM”=normalize transcript per million) was calculated as the maximum nTPM value for each gene in the two data sources.

ZAP70 = biological target: T1, ZAP70 (Homo sapiens, UniProt P43403); assay: KinomeScan; type: binding; conditions: read-out: % Control
T1 construct: purchased DiscoveRx

CAMK1G = biological target: T2, CAMK1G (Homo sapiens, UniProt Q96NX5); assay: KinomeScan; type: binding; conditions: read-out: % Control
T2 construct: purchased DiscoveRx (KinomeScan service)

EP1 = biological target: T3, EP1 (Homo sapiens, UniProt P34995); assay: GPCR Profiler; type: cell-based
T3 construct: host or cells: Chem-1 cells expressing Gα15

TAOK2 = biological target: T4, TAOK2 (Homo sapiens, UniProt Q9UL54); assay: KinomeScan; type: binding; conditions: read-out: % Control
T4 construct: purchased DiscoveRx (Fremont, CA)

GPR41 = biological target: T5, GPR41 (Homo sapiens, UniProt O14843); assay: GPCR Profiler; type: cell-based
T5 construct: host or cells: Chem-1 cells with promiscuous Gα15

MYLK4 = biological target: T6, MYLK4 (Homo sapiens, UniProt Q86YV6); assay: KinomeScan; type: binding; conditions: read-out: % Control
T6 construct: purchased DiscoveRx

NLK = biological target: T7, NLK (Homo sapiens, UniProt Q9UBE8); assay: KinomeScan; type: binding; conditions: read-out: % Control
T7 construct: purchased DiscoveRx

EGFR(G719C) = biological target: T8, EGFR(G719C) (Homo sapiens, UniProt P00533, G719C); assay: KinomeScan; type: binding; conditions: read-out: % Control
T8 construct: purchased DiscoveRx (Fremont, CA), KinomeScan service

HCK = biological target: T9, HCK (Homo sapiens, UniProt P08631); assay: KinomeScan; type: binding; conditions: read-out: % Control
T9 construct: purchased DiscoveRx (Fremont, CA)

DMPK2 = biological target: T10, DMPK2 (Homo sapiens, UniProt Q6DT37); assay: KinomeScan; type: binding; conditions: read-out: % Control
T10 construct: purchased DiscoveRx (Fremont, CA), KinomeScan service

PFTK1 = biological target: T11, PFTK1 (Homo sapiens, UniProt O94921); assay: KinomeScan; type: binding; conditions: read-out: % Control
T11 construct: purchased DiscoveRx (Fremont, CA)

RIOK1 = biological target: T12, RIOK1 (Homo sapiens, UniProt Q9BRS2); assay: KinomeScan; type: binding; conditions: read-out: % Control
T12 construct: purchased DiscoveRx (Fremont, CA)

MRGX2 = biological target: T13, MRGX2 (Homo sapiens, UniProt Q96LB1); assay: GPCR Profiler; type: cell-based
T13 construct: host or cells: Chem-1 cells expressing Gα15

ETA = biological target: T14, ETA (Homo sapiens, UniProt P25101); assay: GPCR Profiler; type: cell-based
T14 construct: host or cells: Chem-1 cells expressing Gα15

MEK4 = biological target: T15, MEK4 (Homo sapiens, UniProt P45985); assay: KinomeScan; type: binding; conditions: read-out: % Control
T15 construct: purchased DiscoveRx (Fremont, CA)

PAK1 = biological target: T16, PAK1 (Homo sapiens, UniProt Q13153); assay: KinomeScan; type: binding; conditions: read-out: % Control
T16 construct: purchased DiscoveRx

YSK4 = biological target: T17, YSK4 (Homo sapiens, UniProt Q56UN5); assay: KinomeScan; type: binding; conditions: read-out: % Control
T17 construct: purchased DiscoveRx

BTK = biological target: T18, BTK (Homo sapiens, UniProt Q06187); assay: KinomeScan; type: binding; conditions: read-out: % Control
T18 construct: purchased DiscoveRx (KinomeScan service)

DAPK1 = DAPK1 (Homo sapiens, UniProt P53355); assay: KinomeScan; type: binding; conditions: read-out: % Control
EGFR(L861Q) = biological target: T19, EGFR(L861Q) (Homo sapiens, UniProt P00533, L861Q); assay: KinomeScan; type: binding; conditions: read-out: % Control
T19 construct: purchased DiscoveRx (Fremont, CA), KinomeScan service

DCAMKL1 = biological target: T20, DCAMKL1 (Homo sapiens, UniProt O15075); assay: KinomeScan; type: binding; conditions: read-out: % Control
T20 construct: purchased DiscoveRx (Fremont, CA), KinomeScan service

T14 sequence (P25101 21-427): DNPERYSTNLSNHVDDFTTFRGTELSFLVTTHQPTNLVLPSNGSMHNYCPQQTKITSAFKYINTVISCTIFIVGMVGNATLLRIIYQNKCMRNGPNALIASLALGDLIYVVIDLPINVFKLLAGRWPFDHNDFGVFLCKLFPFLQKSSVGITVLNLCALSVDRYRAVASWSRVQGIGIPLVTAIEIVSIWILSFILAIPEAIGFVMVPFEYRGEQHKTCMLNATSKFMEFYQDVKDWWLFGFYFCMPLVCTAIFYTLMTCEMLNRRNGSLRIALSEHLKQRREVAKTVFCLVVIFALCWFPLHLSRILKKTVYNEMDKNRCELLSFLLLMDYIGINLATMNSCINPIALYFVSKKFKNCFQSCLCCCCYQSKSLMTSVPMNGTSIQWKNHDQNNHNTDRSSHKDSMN
T5 sequence (O14843 whole entry, species assumed): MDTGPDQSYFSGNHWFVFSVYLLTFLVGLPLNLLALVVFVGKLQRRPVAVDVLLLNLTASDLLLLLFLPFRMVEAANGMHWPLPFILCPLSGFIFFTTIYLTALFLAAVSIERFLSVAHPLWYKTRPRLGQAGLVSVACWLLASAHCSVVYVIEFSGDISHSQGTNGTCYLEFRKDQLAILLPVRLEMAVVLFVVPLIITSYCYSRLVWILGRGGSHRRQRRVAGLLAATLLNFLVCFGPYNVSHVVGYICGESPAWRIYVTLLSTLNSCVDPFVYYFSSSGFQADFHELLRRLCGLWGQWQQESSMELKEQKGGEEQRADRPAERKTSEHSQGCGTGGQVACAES
T3 sequence (P34995 whole entry): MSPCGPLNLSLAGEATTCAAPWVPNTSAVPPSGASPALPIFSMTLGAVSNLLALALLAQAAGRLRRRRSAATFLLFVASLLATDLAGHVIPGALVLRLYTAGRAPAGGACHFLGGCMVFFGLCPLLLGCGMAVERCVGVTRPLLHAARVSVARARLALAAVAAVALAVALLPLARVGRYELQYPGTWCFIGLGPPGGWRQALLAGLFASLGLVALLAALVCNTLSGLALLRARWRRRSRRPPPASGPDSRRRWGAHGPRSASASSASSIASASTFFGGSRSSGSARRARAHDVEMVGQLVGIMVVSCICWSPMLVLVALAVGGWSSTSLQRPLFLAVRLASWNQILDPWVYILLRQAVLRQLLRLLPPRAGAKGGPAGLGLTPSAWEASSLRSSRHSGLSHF
T13 sequence (Q96LB1 whole entry, species assumed): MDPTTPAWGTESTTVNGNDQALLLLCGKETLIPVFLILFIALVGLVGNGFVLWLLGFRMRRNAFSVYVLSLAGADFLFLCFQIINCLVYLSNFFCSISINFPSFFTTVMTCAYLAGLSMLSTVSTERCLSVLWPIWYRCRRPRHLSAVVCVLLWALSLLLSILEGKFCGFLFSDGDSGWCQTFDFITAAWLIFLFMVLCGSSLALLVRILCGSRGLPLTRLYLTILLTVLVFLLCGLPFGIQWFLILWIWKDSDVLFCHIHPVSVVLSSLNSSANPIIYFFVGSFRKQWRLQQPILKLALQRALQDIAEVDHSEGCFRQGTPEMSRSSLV
T17 sequence (Q56UN5 whole entry): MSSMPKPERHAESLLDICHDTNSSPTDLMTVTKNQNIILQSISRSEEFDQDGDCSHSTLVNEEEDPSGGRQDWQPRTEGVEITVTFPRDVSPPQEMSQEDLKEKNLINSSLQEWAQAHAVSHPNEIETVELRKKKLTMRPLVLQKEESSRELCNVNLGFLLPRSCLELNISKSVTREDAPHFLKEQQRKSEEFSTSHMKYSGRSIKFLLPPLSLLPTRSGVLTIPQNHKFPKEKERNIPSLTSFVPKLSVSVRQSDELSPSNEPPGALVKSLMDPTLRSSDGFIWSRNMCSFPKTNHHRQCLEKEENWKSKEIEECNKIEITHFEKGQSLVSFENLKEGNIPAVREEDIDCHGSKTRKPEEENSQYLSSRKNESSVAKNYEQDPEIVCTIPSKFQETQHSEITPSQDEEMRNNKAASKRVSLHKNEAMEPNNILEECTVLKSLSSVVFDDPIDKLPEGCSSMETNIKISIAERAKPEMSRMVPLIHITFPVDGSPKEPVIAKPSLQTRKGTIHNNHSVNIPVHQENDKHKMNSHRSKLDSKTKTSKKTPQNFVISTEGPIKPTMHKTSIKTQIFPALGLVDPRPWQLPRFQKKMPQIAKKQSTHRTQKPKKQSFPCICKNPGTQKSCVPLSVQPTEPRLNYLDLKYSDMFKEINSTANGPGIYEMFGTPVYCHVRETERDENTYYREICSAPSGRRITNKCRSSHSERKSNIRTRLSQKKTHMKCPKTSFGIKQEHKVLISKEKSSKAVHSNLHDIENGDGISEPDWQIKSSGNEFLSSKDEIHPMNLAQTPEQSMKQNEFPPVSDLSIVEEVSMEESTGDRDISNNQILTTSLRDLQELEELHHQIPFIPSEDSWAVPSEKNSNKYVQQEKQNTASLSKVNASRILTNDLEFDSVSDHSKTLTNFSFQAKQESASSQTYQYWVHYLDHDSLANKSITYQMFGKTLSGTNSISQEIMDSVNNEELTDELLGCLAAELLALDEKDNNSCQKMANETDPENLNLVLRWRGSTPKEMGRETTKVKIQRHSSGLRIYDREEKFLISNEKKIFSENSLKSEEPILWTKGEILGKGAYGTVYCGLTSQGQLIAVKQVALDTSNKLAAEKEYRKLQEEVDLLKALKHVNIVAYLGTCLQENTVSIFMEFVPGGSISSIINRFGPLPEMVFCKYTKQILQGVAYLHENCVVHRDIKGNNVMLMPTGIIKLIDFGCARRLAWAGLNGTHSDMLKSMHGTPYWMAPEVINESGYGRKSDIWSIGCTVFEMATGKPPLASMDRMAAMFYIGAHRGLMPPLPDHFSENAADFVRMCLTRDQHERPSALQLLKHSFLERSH
T15 sequence (P45985 whole entry): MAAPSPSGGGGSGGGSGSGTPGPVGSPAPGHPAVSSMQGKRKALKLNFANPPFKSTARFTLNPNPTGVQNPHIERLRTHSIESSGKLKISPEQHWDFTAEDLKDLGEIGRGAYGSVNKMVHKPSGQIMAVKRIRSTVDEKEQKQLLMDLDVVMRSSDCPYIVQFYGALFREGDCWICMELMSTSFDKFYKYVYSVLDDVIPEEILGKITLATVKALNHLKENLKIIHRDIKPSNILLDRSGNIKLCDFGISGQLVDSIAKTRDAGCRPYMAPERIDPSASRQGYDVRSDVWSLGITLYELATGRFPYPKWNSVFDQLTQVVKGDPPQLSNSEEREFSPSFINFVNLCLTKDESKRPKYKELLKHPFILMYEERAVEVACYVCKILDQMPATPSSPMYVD
T6 sequence (Q86YV6 whole entry): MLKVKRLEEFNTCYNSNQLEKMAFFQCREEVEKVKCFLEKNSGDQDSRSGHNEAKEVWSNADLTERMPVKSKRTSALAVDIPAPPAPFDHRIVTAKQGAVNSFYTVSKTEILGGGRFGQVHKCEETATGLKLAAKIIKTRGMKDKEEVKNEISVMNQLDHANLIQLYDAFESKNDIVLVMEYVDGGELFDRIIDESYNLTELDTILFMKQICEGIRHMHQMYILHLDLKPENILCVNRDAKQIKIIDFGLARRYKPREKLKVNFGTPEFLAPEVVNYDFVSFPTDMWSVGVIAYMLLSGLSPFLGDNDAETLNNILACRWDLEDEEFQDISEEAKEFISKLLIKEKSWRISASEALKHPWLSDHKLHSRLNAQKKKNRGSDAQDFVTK
T16 sequence (Q13153 whole entry): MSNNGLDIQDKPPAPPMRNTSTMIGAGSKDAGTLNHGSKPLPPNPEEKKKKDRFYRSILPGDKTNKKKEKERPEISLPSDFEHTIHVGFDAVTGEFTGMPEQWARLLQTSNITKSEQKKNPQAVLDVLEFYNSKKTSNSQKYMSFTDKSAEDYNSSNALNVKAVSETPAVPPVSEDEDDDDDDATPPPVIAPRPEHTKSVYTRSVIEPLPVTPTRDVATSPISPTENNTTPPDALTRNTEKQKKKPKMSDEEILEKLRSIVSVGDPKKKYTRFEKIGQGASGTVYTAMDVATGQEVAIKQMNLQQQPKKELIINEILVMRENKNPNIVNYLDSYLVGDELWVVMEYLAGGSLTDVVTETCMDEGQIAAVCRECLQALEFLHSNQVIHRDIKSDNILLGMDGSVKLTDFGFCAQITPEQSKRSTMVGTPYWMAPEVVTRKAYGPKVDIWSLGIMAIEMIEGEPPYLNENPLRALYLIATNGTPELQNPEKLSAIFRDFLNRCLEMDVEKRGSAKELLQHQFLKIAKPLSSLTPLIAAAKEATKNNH
T9 sequence (P08631 whole entry): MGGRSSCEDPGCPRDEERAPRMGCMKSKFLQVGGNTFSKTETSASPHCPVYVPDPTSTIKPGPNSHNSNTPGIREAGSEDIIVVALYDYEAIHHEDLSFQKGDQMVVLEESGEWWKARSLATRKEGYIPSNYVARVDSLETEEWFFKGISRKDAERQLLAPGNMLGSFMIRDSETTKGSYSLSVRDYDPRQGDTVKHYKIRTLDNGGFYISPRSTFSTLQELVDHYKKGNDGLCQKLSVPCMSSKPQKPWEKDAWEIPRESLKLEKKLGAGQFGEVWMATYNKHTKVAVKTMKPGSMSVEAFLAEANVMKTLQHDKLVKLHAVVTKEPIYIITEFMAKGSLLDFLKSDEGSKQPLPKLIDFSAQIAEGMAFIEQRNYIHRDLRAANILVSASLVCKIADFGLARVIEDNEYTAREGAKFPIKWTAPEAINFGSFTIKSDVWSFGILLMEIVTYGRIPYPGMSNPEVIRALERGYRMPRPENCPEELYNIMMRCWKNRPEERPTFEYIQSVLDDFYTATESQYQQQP

## CCc1ccc2c(c1)C1(NN=C(c3ccccc3)S1)C(=O)N2 (centres unmarked) [OGM2]
REC-1
  % Survival 2 μM OGM: 0.7%
  % Survival 10 μM OGM: 0.0%
REC-1; Homo sapiens, Rec1, read-out: LC50 (the source's name)
  CC50: < 2 µM
SW480
  % Survival 2 μM OGM: 39.8%
  % Survival 10 μM OGM: 25.0%
SW480; Homo sapiens, SW480, read-out: LC50 (the source's name)
  CC50: < 2 µM
K-562
  Class: Sensitive (Sensitive (LC50=2 to 10 μM))
K-562; 72 hours
  % Survival 2 μM OGM: 56.7%
  % Survival 10 μM OGM: 37.0%
K-562; Homo sapiens, K562, 72 hours, read-out: LC50 (the source's name)
  CC50: 2 to 10 µM

## CCc1ccc2c(c1)C1(NN=C(c3cccc4ccccc34)S1)C(=O)N2 (centres unmarked) [OGM1, 5-ethyl-5′-naphthalen-1-ylspiro[1H-indole-3,2′-3H-1,3,4-thiadiazole]-2-one]
ZAP70
  remaining binding at 10 µM: 73%
CAMK1G
  remaining binding at 10 µM: 80%
EP1; 10 uM
  Antagonism: −6
EP1; 12.5 uM
  Agonism: 0.2
TAOK2
  remaining binding at 10 µM: 81%
GPR41; 10 uM
  Antagonism: 1.9
GPR41; 12.5 uM
  Agonism: 0.4
MYLK4
  remaining binding at 10 µM: 98%
NLK
  remaining binding at 10 µM: 100%
EGFR(G719C)
  remaining binding at 10 µM: 100%
HCK
  remaining binding at 10 µM: 96%
DMPK2
  remaining binding at 10 µM: 93%
PFTK1
  remaining binding at 10 µM: 92%
RIOK1
  remaining binding at 10 µM: 100%
MRGX2; 10 uM
  Antagonism: 5.1
MRGX2; 12.5 uM
  Agonism: −0.1
ETA; 10 uM
  Antagonism: 4.7
ETA; 12.5 uM
  Agonism: 0.1
MEK4
  remaining binding at 10 µM: 100%
PAK1
  remaining binding at 10 µM: 70%
YSK4
  remaining binding at 10 µM: 100%
BTK
  remaining binding at 10 µM: 88%
DAPK1
  remaining binding at 10 µM: 90%
EGFR(L861Q)
  remaining binding at 10 µM: 100%
DCAMKL1
  remaining binding at 10 µM: 72%
